# Measured values from patent US12077503B2, “Substituted cyclic amides and their use as herbicides” (FMC CORPORATION, priority 2015, dated 2024).
# Tests used:
# Format in all cases: in vivo
# [1] = system: ragweed (common ragweed, Ambrosia elatior); assay: Test A postemergence; conditions: Ambrosia artemisiifolia, post-emergence, 240 h, Postemergence, read-out: Ragweed plant response rating (0 to 100 scale); for pest or weed control at 125 g/ha: 125 g ai/ha, visual rating about 10 d after treatment; for pest or weed control at 31 g/ha: 31 g ai/ha, 0 is no effect, 100 is complete control
# Method in brief: (§1)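 Seeded soil received test chemicals as a preemergence directed spray, and seedlings at one to two leaves, 2–10 cm tall, received them postemergence, in a non-phytotoxic, surfactant-containing solvent mixture. Pots were held in a greenhouse for approximately 10 d, then rated for injury from 0, no effect, to 100, complete control.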
# [2] = system: barnyardgrass (Echinochloa crus-galli); assay: Test A postemergence; conditions: Echinochloa crus-galli, post-emergence, 240 h, Postemergence; for pest or weed control at 125 g/ha: 125 g ai/ha, visual rating about 10 d after treatment, read-out: Barnyardgrass plant response rating (0 to 100 scale, 0 no effect, 100 complete control); for pest or weed control at 31 g/ha: 31 g ai/ha, 0 is no effect, 100 is complete control, read-out: Barnyardgrass plant response rating (0 to 100 scale)
# Method in brief: as §1
# [3] = system: giant foxtail (Setaria faberii); assay: Test A postemergence; conditions: Setaria faberi, post-emergence, 240 h, Postemergence, read-out: Foxtail, Giant plant response rating (0 to 100 scale); for pest or weed control at 125 g/ha: 125 g ai/ha, visual rating about 10 d after treatment; for pest or weed control at 31 g/ha: 31 g ai/ha, 0 is no effect, 100 is complete control
# Method in brief: as §1
# corn (Zea mays) = assay: Test A postemergence; conditions: Zea mays, post-emergence, 240 h, Postemergence, read-out: Corn plant response rating (0 to 100 scale); for plant injury at 125 g/ha: 125 g ai/ha, visual rating about 10 d after treatment; for plant injury at 31 g/ha: 31 g ai/ha, 0 is no effect, 100 is complete control
# Method in brief: as §1
# [4] = system: blackgrass (Alopecurus myosuroides); assay: Test A postemergence; conditions: Alopecurus myosuroides, post-emergence, 240 h, Postemergence, read-out: Blackgrass plant response rating (0 to 100 scale); for pest or weed control at 125 g/ha: 125 g ai/ha, visual rating about 10 d after treatment; for pest or weed control at 31 g/ha: 31 g ai/ha, 0 is no effect, 100 is complete control
# Method in brief: as §1
# Kochia (Kochia scoparia) [5] = assay: Test A postemergence; conditions: Bassia scoparia, post-emergence, 240 h, Postemergence, read-out: Kochia plant response rating (0 to 100 scale); for pest or weed control at 125 g/ha: 125 g ai/ha, visual rating about 10 d after treatment; for pest or weed control at 31 g/ha: 31 g ai/ha, 0 is no effect, 100 is complete control
# Method in brief: as §1
# [6] = system: Galium (catchweed bedstraw, Galium aparine); assay: Test A postemergence; conditions: Galium, post-emergence, 240 h, Postemergence, read-out: Galium plant response rating (0 to 100 scale); for pest or weed control at 125 g/ha: 125 g ai/ha, visual rating about 10 d after treatment; for pest or weed control at 31 g/ha: 31 g ai/ha, 0 is no effect, 100 is complete control
# Method in brief: as §1
# [7] = system: pigweed (Amaranthus retroflexus); assay: Test A postemergence; conditions: Amaranthus retroflexus, post-emergence, 240 h, Postemergence, read-out: Pigweed plant response rating (0 to 100 scale); for pest or weed control at 125 g/ha: 125 g ai/ha, visual rating about 10 d after treatment; for pest or weed control at 31 g/ha: 31 g ai/ha, 0 is no effect, 100 is complete control
# Method in brief: as §1
# [8] = system: ryegrass, Italian (Italian ryegrass, Lolium multiflorum); assay: Test A postemergence; conditions: Lolium multiflorum, post-emergence, 240 h, Postemergence, read-out: Ryegrass, Italian plant response rating (0 to 100 scale); for pest or weed control at 125 g/ha: 125 g ai/ha, visual rating about 10 d after treatment; for pest or weed control at 31 g/ha: 31 g ai/ha, 0 is no effect, 100 is complete control
# Method in brief: as §1
# [9] = system: wheat (Triticum aestivum); assay: Test A postemergence; conditions: Triticum aestivum, post-emergence, 240 h, Postemergence, read-out: Wheat plant response rating (0 to 100 scale); for plant injury at 125 g/ha: 125 g ai/ha, visual rating about 10 d after treatment; for plant injury at 31 g/ha: 31 g ai/ha, 0 is no effect, 100 is complete control
# Method in brief: as §1
# [10] = system: barnyardgrass (Echinochloa crus-galli); assay: Test B flooded paddy test; conditions: Echinochloa crus-galli, 250 g ai/ha, Flood; 0 to 100 scale where 0 is no effect and 100 is complete control; read-out: Barnyardgrass plant response rating
# Method in brief: (§2)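 Plants at 2-leaf stage flooded to 3 cm above soil, with compounds applied directly to paddy water and that depth maintained. Plants kept in greenhouse 13–15 d. Visual rating versus controls on a 0 (no effect) to 100 (complete control) scale.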
# rice (Oryra sativa) = assay: Test B flooded paddy test; conditions: Oryza sativa, 250 g ai/ha, Flood; 0 to 100 scale where 0 is no effect and 100 is complete control; read-out: Rice plant response rating
# Method in brief: as §2
# [11] = system: sedge, umbrella (small-flower umbrella sedge, Cyperus difformis); assay: Test B flooded paddy test; conditions: Cyperus difformis, 250 g ai/ha, Flood; 0 to 100 scale where 0 is no effect and 100 is complete control; read-out: Sedge, Umbrella plant response rating
# Method in brief: as §2
# [12] = system: ducksalad (Heteranthera limosa); assay: Test B flooded paddy test; conditions: Heteranthera limosa, 250 g ai/ha, Flood; 0 to 100 scale where 0 is no effect and 100 is complete control; read-out: Ducksalad plant response rating
# Method in brief: as §2
# [13] = system: ragweed (common ragweed, Ambrosia elatior); assay: Test A preemergence; conditions: Ambrosia artemisiifolia, pre-emergence, 240 h, 0 to 100 scale where 0 is no effect and 100 is complete control, read-out: Ragweed plant response rating; for pest or weed control at 31 g/ha: 31 g ai/ha, Preemergence; for pest or weed control at 125 g/ha: 125 g ai/ha, preemergence, visual injury rating, approximately 10 d
# Method in brief: as §1
# [14] = system: barnyardgrass (Echinochloa crus-galli); assay: Test A preemergence; conditions: Echinochloa crus-galli, pre-emergence, 240 h, 0 to 100 scale where 0 is no effect and 100 is complete control, read-out: Barnyardgrass plant response rating; for pest or weed control at 31 g/ha: 31 g ai/ha, Preemergence; for pest or weed control at 125 g/ha: 125 g ai/ha, preemergence, visual injury rating, approximately 10 d
# Method in brief: as §1
# [15] = system: giant foxtail (Setaria faberii); assay: Test A preemergence; conditions: Setaria faberi, pre-emergence, 240 h, 0 to 100 scale where 0 is no effect and 100 is complete control, read-out: Foxtail, Giant plant response rating; for pest or weed control at 31 g/ha: 31 g ai/ha, Preemergence; for pest or weed control at 125 g/ha: 125 g ai/ha, preemergence, visual injury rating, approximately 10 d
# Method in brief: as §1
# Kochia (Kochia scoparia) [16] = assay: Test A preemergence; conditions: Bassia scoparia, pre-emergence, 240 h, 0 to 100 scale where 0 is no effect and 100 is complete control, read-out: Kochia plant response rating; for pest or weed control at 31 g/ha: 31 g ai/ha, Preemergence; for pest or weed control at 125 g/ha: 125 g ai/ha, preemergence, visual injury rating, approximately 10 d
# Method in brief: as §1
# [17] = system: pigweed (Amaranthus retroflexus); assay: Test A preemergence; conditions: Amaranthus retroflexus, pre-emergence, 240 h, 0 to 100 scale where 0 is no effect and 100 is complete control, read-out: Pigweed plant response rating; for pest or weed control at 31 g/ha: 31 g ai/ha, Preemergence; for pest or weed control at 125 g/ha: 125 g ai/ha, preemergence, visual injury rating, approximately 10 d
# [18] = system: ryegrass, Italian (Italian ryegrass, Lolium multiflorum); assay: Test A preemergence; conditions: Lolium multiflorum, pre-emergence, 240 h, 0 to 100 scale where 0 is no effect and 100 is complete control, read-out: Ryegrass, Italian plant response rating; for pest or weed control at 31 g/ha: 31 g ai/ha, Preemergence; for pest or weed control at 125 g/ha: 125 g ai/ha, preemergence, visual injury rating, approximately 10 d
# Method in brief: as §1
Compound,pest or weed control at 125 g/ha [1],pest or weed control at 31 g/ha [1],pest or weed control at 125 g/ha [2],pest or weed control at 31 g/ha [2],pest or weed control at 125 g/ha [3],pest or weed control at 31 g/ha [3],plant injury at 125 g/ha (corn (Zea mays)),plant injury at 31 g/ha (corn (Zea mays)),pest or weed control at 125 g/ha [4],pest or weed control at 31 g/ha [4],pest or weed control at 125 g/ha (Kochia (Kochia scoparia) [5]),pest or weed control at 31 g/ha (Kochia (Kochia scoparia) [5]),pest or weed control at 125 g/ha [6],pest or weed control at 31 g/ha [6],pest or weed control at 125 g/ha [7],pest or weed control at 31 g/ha [7],pest or weed control at 125 g/ha [8],pest or weed control at 31 g/ha [8],plant injury at 125 g/ha [9],plant injury at 31 g/ha [9],further results
CN1C[C@H](c2csc3c2CCCC3)[C@@H](C(=O)Nc2ccccc2F)C1=O [Compound 1275],0%,0%,90%,30%,70%,20%,0%,0%,0%,0%,0%,0%,0%,0%,0%,0%,0%,0%,0%,0%,pest or weed control at 250 g/ha [10]: 75%; pest or weed control at 250 g/ha (rice (Oryra sativa)): 20%; pest or weed control at 250 g/ha [11]: 0%; pest or weed control at 250 g/ha [12]: 90%; pest or weed control at 31 g/ha [13]: 0%; pest or weed control at 125 g/ha [13]: 20%; pest or weed control at 31 g/ha [14]: 70%; pest or weed control at 125 g/ha [14]: 100%; pest or weed control at 31 g/ha [15]: 90%; pest or weed control at 125 g/ha [15]: 100%; pest or weed control at 31 g/ha (Kochia (Kochia scoparia) [16]): 0%; pest or weed control at 125 g/ha (Kochia (Kochia scoparia) [16]): 20%; pest or weed control at 31 g/ha [17]: 0%; pest or weed control at 125 g/ha [17]: 0%; pest or weed control at 31 g/ha [18]: 0%; pest or weed control at 125 g/ha [18]: 0%
CN1C[C@H](c2csc3c2CCC3)[C@@H](C(=O)Nc2cccc(F)c2F)C1=O [Compound 1278],30%,0%,100%,70%,80%,50%,0%,0%,0%,0%,20%,0%,0%,0%,0%,0%,0%,0%,0%,0%,pest or weed control at 250 g/ha [10]: 60%; pest or weed control at 250 g/ha (rice (Oryra sativa)): 35%; pest or weed control at 250 g/ha [11]: 0%; pest or weed control at 250 g/ha [12]: 90%; pest or weed control at 31 g/ha [13]: 20%; pest or weed control at 125 g/ha [13]: 100%; pest or weed control at 31 g/ha [14]: 80%; pest or weed control at 125 g/ha [14]: 100%; pest or weed control at 31 g/ha [15]: 100%; pest or weed control at 125 g/ha [15]: 100%; pest or weed control at 31 g/ha (Kochia (Kochia scoparia) [16]): 30%; pest or weed control at 125 g/ha (Kochia (Kochia scoparia) [16]): 30%; pest or weed control at 31 g/ha [17]: 0%; pest or weed control at 125 g/ha [17]: 90%; pest or weed control at 31 g/ha [18]: 0%; pest or weed control at 125 g/ha [18]: 30%
